Assay results from patent US8936787B2, “Peptides promoting lipid efflux” (The United States of America as represented by the …, priority 2008, dated 2015).
“Also recorded” adds a separate entry of the source.

Assays:
BHK and BHK-ABCA1 cells = test: Cholesterol efflux from BHK and BHK-ABCA1 cells; format: cell-based; settings: 20 ug/ml free peptide, 18 hours
Experimental: FIG. 23 is a graph illustrating the effect of 18A-C-II peptide on cholesterol efflux. BHK and BHK-ABCA1 cells were loaded with ^3H-cholesterol for 24 hours at 37° C. and then 20 ug/ml of the free 18A-C-II peptide was added as cholesterol acceptor to efflux for 18 hours. Percentage efflux was calculated by subtracting the radioactive counts in the blank from the radioactive counts in the presence of an acceptor and then dividing the result by the sum of the radioactive counts in the medium plus the cell fraction.
The effect of 18A-C-II peptide on cholesterol efflux was investigated by loading BHK and BHK-ABCA1 cells with ^3H-cholesterol for 24 hours at 37° C. and then adding 20 ug/ml of the free 18A-C-II peptide as cholesterol acceptor to efflux for 18 hours. Percentage efflux was calculated by subtracting the radioactive counts in the blank from the radioactive counts in the presence of an acceptor and then dividing the result by the sum of the radioactive counts in the medium plus the cell fraction.

C57B1/6 mice = test: Plasma triglycerides in C57B1/6 mice, 18A-C-II; format: in vivo; settings: 1 mg (30 mg/kg) co-injected
Experimental: FIG. 18 is a graph illustrating the ability of 18A-C-II:POPC peptide (peptide with SEQ ID NO: 70) to prevent hypertriglyceridemia. The 18A-C-II:POPC peptide was lipidated with POPC at the ratio of 1:7. Hypertriglyceridemia was induced in C57B1/6 mice by a 2 mg (60 mg/kg) bolus intravenous (IV) injection of free 5A peptide (Δ). […] In addition, a single IV dose of 1 mg of the 18A-C-II:POPC peptide lowered the plasma triglyceride levels in normal C57B1 mice (□) compared to saline (⋄).
18A-C-II peptide (SEQ ID NO: 70) was complexed with POPC at a 1:7 molar ratio using a co-lyophilization procedure by which the free peptide and POPC were co-dissolved in glacial acetic acid and lypophilized. The dry powder was reconstituted with saline and heated between 37° C. to 50° C. to reconstitution, which results in a clear solution of particles containing both the 18A-C-II peptide and POPC.
Hypertriglyceridemia was induced in C57B1/6 mice by a 2 mg (60 mg/kg) bolus IV injection of free 5A peptide (A). […] In addition, a single IV dose of 1 mg of the 18A-C-II:POPC peptide lowered the plasma triglyceride levels in normal C57B1 mice (□) compared to saline (⋄).

For “DWLKAFYDKVAEKLKEAFPDLYSKSTAAMSTYTGIFTDQVLSVLKGEE [18A-C-II]”, the “cholesterol efflux, BHK-ABCA1 versus BHK cells” value (BHK and BHK-ABCA1 cells) was “significant difference” and the “increase in plasma triglycerides induced by free 5A peptide (60 mg/kg IV)” value (C57B1/6 mice) was “significantly reduced; also recorded: significantly halted”.
